Reference: ChEMBL document CHEMBL5126662, “Expanding the Ajudazol Cytotoxin Scaffold: Insights from Genome Mining, Biosynthetic Investigations, and Novel Derivatives” (J Nat Prod, 2022)
Activity calls are given as the source filed them.

What was measured:
Format in all cases: functional, cell-based
Conditions in all cases: time 5.0 day
HepG2 = experiment: Antiproliferative activity against human HepG2 cells assessed as reduction in cell viability after 5 days by MTT assay
HCT-116 = experiment: Antiproliferative activity against human HCT-116 cells assessed as reduction in cell viability after 5 days by MTT assay
KB 3-1 = experiment: Antiproliferative activity against human KB3.1 cells assessed as reduction in cell viability after 5 days by MTT assay

Measured: Activity

C=C(C/C=C/C=C/CC/C=C/CN(C)C(=O)C=C(C)C)c1nc(C[C@@H](C)[C@H]2OC(=O)c3c(ccc(C)c3O)[C@@H]2O[C@@H]2O[C@H](CO)[C@@H](O)[C@H](O)[C@H]2O)co1
active: all assays above

CC(C)=CC(=O)N(C)C/C=C/CC/C=C/C=C/CC(O)(CO[C@@H]1O[C@H](CO)[C@@H](O)[C@@H]1O)c1nc(C[C@@H](C)[C@H]2OC(=O)c3c(ccc(C)c3O)[C@@H]2O)co1 (some centres undefined)
active: all assays above

C=C(C/C=C/C=C/CC/C=C/CN(C)C(=O)/C=C(\C)CO)c1nc(C[C@@H](C)[C@H]2OC(=O)c3c(ccc(C)c3O)[C@@H]2O)co1
active: all assays above

CC(C)=CC(=O)N(C)C/C=C/CC/C=C/C=C/CC(C)(O)c1nc(C[C@@H](C)[C@H]2OC(=O)c3c(ccc(C)c3O)[C@@H]2O)co1 (some centres undefined)
active: all assays above

CC(C)=CC(=O)N(C)C/C=C/CC/C=C/C=C/C[C@@H](C)c1nc(C[C@@H](C)[C@H]2OC(=O)c3c(ccc(C)c3O)[C@@H]2O)co1
active: all assays above

C=C(C/C=C/C=C/CC/C=C/CN(C)C(=O)C=C(C)C)c1nc(C[C@@H](C)[C@H]2OC(=O)c3c(ccc(C)c3O)[C@@H]2O)co1
active: all assays above

CC(C)=CC(=O)N(C)C/C=C/CC/C=C/C=C/CC(O)(CO)c1nc(C[C@@H](C)[C@H]2OC(=O)c3c(ccc(C)c3O)[C@@H]2O)co1 (some centres undefined)
active: all assays above

CC(C)=CC(=O)N(C)C/C=C/CC/C=C/C=C/CC(O)(CO[C@@H]1O[C@H](CO)[C@@H](O)[C@H](O)[C@H]1O)c1nc(C[C@@H](C)[C@H]2OC(=O)c3c(ccc(C)c3O)[C@@H]2O)co1 (some centres undefined)
active: all assays above
